Data on twelve compounds can be found in paper PMC12640937, “Integrating drug effects on individual cardiac ionic currents and cardiac action potentials to understand nonclinical translation to clinical ECG changes” (Frontiers in Pharmacology, 2025).

“And” between values parts separate entries of the source, which are not always exact repeats. Identical values can stand only once. Like-named read-outs stand apart in the source and are kept apart here.

The subject of data set [1] is Ba2+ current through CaV1.2 channels. Also on record: method as in Ren et al., 2022. As to conditions: ∼37 °C; ref Ren et al., 2022; cited from earlier work.
Data set [2] has as its system hERG. To be noted: ref Crumb et al., 2016, cited from earlier work.
Data set [3] relates to IBa or Ba2+ current through CaV1.2 channels. To be noted: read-out: IBa (Ba2+ current through CaV1.2) IC50; prior study; 36 °C; ref Crumb et al., 2016; cited from earlier work.
For another data set, the system named is INaL (NaV1.5 channels). As to conditions: prior study, ref Crumb et al., 2016, cited from earlier work; for IC50: read-out: INaL IC50, veratridine, 36 °C.
Data set [4] relates to adult human primary ventricular trabeculae. The experiment in a line: Action potential recordings from adult human ventricular trabeculae (sharp electrode).
In data set [5] the test system is hERG1a and hERG1a/1b channels. To be noted: cited from earlier work.
Data set [6] relates to adult human primary ventricular trabeculae. To be noted: mexiletine at 3X concentration as tested here; ref Qu et al., 2017; cited from earlier work.
The test system of the next data set is INaL. Set-up: method as in Wu et al., 2019. To be noted: room temperature, ref Wu et al., 2019, cited from earlier work.
The conditions of data set [7]: used to calculate free Cmax; no reference given; cited from earlier work.
Data set [8] has as its target hERG (Homo sapiens, UniProt Q12809). The experiment in a line: in vitro. As to conditions: HEK293 cells stably expressing the hERG1a subunit, pH 7.4.
The target of data set [9] is hERG current (HEK293 cells expressing the hERG1a subunit) (Homo sapiens, UniProt Q12809). Nature of the data set: cell-based.
Sequence of hERG current (HEK293 cells expressing the hERG1a subunit) (Q12809 whole entry): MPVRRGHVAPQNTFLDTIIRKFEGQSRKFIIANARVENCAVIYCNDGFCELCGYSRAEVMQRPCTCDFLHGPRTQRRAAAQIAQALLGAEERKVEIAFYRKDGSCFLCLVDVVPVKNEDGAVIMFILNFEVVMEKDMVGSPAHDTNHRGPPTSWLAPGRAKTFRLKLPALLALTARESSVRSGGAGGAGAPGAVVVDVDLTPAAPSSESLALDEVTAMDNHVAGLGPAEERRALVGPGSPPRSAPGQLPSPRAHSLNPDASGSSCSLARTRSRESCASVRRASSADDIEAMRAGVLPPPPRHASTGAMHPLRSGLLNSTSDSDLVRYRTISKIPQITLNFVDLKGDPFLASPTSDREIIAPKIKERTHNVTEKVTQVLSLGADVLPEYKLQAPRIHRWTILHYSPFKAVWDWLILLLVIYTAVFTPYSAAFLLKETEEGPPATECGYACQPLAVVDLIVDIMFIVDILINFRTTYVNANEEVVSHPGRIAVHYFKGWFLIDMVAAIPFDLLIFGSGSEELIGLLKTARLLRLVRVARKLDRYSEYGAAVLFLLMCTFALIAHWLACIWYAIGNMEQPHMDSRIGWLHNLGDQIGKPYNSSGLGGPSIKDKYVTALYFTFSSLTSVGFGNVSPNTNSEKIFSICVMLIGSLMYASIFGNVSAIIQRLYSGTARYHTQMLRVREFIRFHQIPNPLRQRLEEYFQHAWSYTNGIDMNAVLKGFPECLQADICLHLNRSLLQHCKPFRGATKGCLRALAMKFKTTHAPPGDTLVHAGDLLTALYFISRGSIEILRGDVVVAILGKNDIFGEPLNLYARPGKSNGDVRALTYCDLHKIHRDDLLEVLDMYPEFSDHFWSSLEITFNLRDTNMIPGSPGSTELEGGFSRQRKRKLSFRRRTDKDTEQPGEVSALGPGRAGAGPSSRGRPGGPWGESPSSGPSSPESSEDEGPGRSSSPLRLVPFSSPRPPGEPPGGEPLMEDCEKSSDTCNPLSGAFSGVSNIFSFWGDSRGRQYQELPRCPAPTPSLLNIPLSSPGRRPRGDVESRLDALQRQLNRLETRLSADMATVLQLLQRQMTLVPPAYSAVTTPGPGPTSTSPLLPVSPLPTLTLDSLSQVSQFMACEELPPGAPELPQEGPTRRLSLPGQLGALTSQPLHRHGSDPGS
The conditions of data set [10]: calculated with MW and protein binding; ref Johannesen et al., 2016; cited from earlier work.
Another data set concerns clinical ECG. As to conditions: lidocaine or mexiletine co-administered with dofetilide; diltiazem with moxifloxacin; ref Johannesen et al., 2016; cited from earlier work.
[11] abbreviates: diltiazem 3.84 then 38.4 µM or nifedipine 0.23 then 1 µM, alone.

Sequence of hERG (Homo sapiens, UniProt Q12809) (Q12809 whole entry): as above

Consider `COc1ccc([C@@H]2Sc3ccccc3N(CCN(C)C)C(=O)[C@@H]2OC(C)=O)cc1` [diltiazem], for which the IC50 in data set [1] was 0.8 µM; in [3] it was 0.112 µM; in the data set with INaL (NaV1.5 channels), 24.5 µM. Besides, the “hERG current inhibition when 50% of CaV1.2 channels were blocked” value in the data set on hERG [2] (prior study) is “no inhibition”. Moreover, in the data set on INaL (NaV1.5 channels), the “INaL inhibition when 50% of CaV1.2 channels were blocked” value is reported as “no inhibition”. The AP triangulation entry in data set [4] (setting [11]) was “resulting in AP triangulation”.

Turning to `O=C1CC[C@@]2(O)[C@H]3Cc4ccc(O)c5c4[C@@]2(CCN3CC2CC2)[C@H]1O5` [naltrexone], the “pharmacological difference between hERG1a and hERG1a/1b channels” value in data set [5] (ref Tran et al., 2020) is given as “no pharmacological differences”.

As to `CN(CCOc1ccc(NS(C)(=O)=O)cc1)CCc1ccc(NS(C)(=O)=O)cc1` [dofetilide], the IC50 in the data set with hERG [2] (read-out: hERG IC50, prior study, 36 °C) was […]. Moreover, the “AP triangulation (APD90 minus APD30)” value in data set [4] (dofetilide 0.1 µM alone, 1 Hz) was “resulting in AP triangulation”. The AP triangulation entry in [4] (dofetilide in the presence of diltiazem or nifedipine) was “induced AP triangulation”.

Turning to `Nc1nnc(-c2cccc(Cl)c2Cl)c(N)n1` [lamotrigine], the AP height result in data set [6] is “reduced AP height”.

As for `COc1ccccc1OCC(O)CN1CCN(CC(=O)Nc2c(C)cccc2C)CC1` (stereo not shown) [ranolazine], the AP height entry in [6] was “did not”.

As for `COC(=O)C1=C(C)NC(C)=C(C(=O)OC)C1c1ccccc1[N+](=O)[O-]` [nifedipine], the AP triangulation entry in data set [4] (setting [11]) is “no AP triangulation”.

For `CCN(CC)CC(=O)Nc1c(C)cccc1C` [lidocaine], the IC50 with INaL (read-out: INaL IC50 obtained in ATX-II) is 31.7 µM; in the data set on INaL (read-out: INaL IC50 obtained in veratridine), 395 µM.

As for `CCC(=O)C(CC(C)N(C)C)(c1ccccc1)c1ccccc1` (stereo not shown) [methadone], in data set [5], the “pharmacological difference between hERG1a and hERG1a/1b channels” value is “no pharmacological differences”.

In the case of buprenorphine, the “pharmacological difference between hERG1a and hERG1a/1b channels” value in [5] is “no pharmacological differences”.

For the compound `O=C(NCC1CCCCN1)c1cc(OCC(F)(F)F)ccc1OCC(F)(F)F` (stereo not shown) [flecainide], in data set [6], the AP height result is listed as “reduced AP height”.

For the compound `C=CCN1CC[C@]23c4c5ccc(O)c4O[C@H]2C(=O)CC[C@@]3(O)[C@H]1C5` [naloxone], the “pharmacological difference between hERG1a and hERG1a/1b channels” value in data set [5] (ref Tran et al., 2020) is recorded as “no pharmacological differences”.

For the compound `Cc1cccc(C)c1OCC(C)N` (stereo not shown) [mexiletine], the AP height entry in data set [6] was “reduced AP height”. The “percent protein binding (PB)” value in data set [7] is given as 55%. At hERG [8], this compound came in with an inhibition at 10 µM of roughly 20%. The IC50 in [9] was 55.6 µM; in data set [3] it was 38.2 µM; in the data set on INaL (NaV1.5 channels) it was 9.3 µM and 9 µM. In addition, the hERG current inhibition with hERG [2] (10 μM, highest concentration tested in prior study) is given as roughly 10%. Also, the “free clinical Cmax” value in [10] was 3.6 µM. Besides, the “effect on hERG block-induced QTC and J-TpeakC prolongation” value with clinical ECG was “shortened by co-administration”.
